Entries after “also recorded” stand apart in the source; their conditions may differ.
What was measured:
[1] = system: patients scheduled for knee reconstruction surgery; assay: Phase 1 study of oral alphadolone: side effects (sedation, nausea, respiratory depression, disorientation); format: in vivo, human
Protocol: The study consisted of two phases. The first phase was a dose escalation study. At any time during this phase as well as the second phase, if the patient was randomised to receive placebo then a capsule containing lactose was administered orally at the time of medication. If the patient was randomised to receive alphadolone then the first patient so randomised received 25 mg alphadolone acetate orally. The patient was monitored for efficacy of the medication and side effects. If there were no unacceptable side effects such as respiratory depression or severe sedation or disorientation then the next patient randomised to receive the active treatment received a higher dose. The dose escalation planned was in the order, 25, 50, 100, 250, 500 and 1000 mg. The original plan was to continue dose escalation until unacceptable side effects occurred and then to reduce the dose to go onto the next, second, phase of the study, a double-blind comparison of the dose just below the high dose that produced unacceptable side effects compared with placebo. However, the view of the Ethics Committee was that this was more appropriate to a drug company sponsored trial and they ordered that the trial should switch from the dose escalation phase to the comparison phase when there was clear evidence of efficacy.
No premedication was given. The patients were taken to the operating theatre and subjected to a standardised anaesthetic regime that consisted of a propofol induction followed by a propofol infusion and the muscle relaxant of the anaesthetist's preference The trachea was intubated and lungs ventilated with a mixture of nitrous oxide and oxygen. Morphine 1-2 mg intravenously was given as indicated by normal signs of depth of anaesthesia. The amount of morphine used in the operating theatre was recorded in the case record form. After the end of surgery, the muscle relaxant was reversed with atropine and neostigmine and the patient sent to recovery. In the recovery ward the patient was reintroduced to the patient controlled analgesia machine containing morphine to deliver a dose of 1 mg increments with a lock out time of 5 minutes. The patient spent approximately half an hour in recovery ward and was then sent to the ward. The following observations and measurements were made one hour before, half an hour before, and just before giving the test medication (placebo or alphadolone) orally with 100 ml of water. The observations were continued every half hour thereafter until six hours after the capsule had been given:
Sedation on a four point score none, mild, moderate, unseasonable;
Nausea score rating none, mild, moderate, severe vomiting;
Respiratory depression scores as
none—respiratory rate greater than 10 oxygen saturation greater than 95%
mild—respiratory rate great than 6 and less than 10 oxygen saturation greater than 95%
moderate—respiratory rate less than 6 but oxygen saturation greater than 95%
unreasonable—respiratory rate less than 6 and/or oxygen saturation less than 95%
Light-headedness scored from none (no dizziness), mild (light dizziness but no nystagmus), moderate (feels dizzy and has nystagmus), severe (very dizzy with nausea);
Slurred speech scored as none, mild, moderate, severe;
Presence of disorientation;
Gaze evoked nystagmus scored as none, mild (1-2 jerks), moderate (constant slow jerks), severe (fast jerks and feeling dizzy);
Lack of co-ordination with two tests (a) close eyes touch nose with finger (b) touch 1, 2, 3, 4 fingers in turn with thumb; classified as none (both tests accomplished), mild (both tests accomplished but slowly), moderate (one test achieved after two attempts), severe (failed both tests after two attempts at each).
The total number of 0's, 1's, 2's, 3's and 4's recorded during the six hours after capsule administration were totalled for the five placebo treated and seven alphadolone treated patients and entered into a contingency table (table 2).

rats [2] = assay: Sedation scoring (righting reflex, locomotion) after intravenous injection; format: in vivo, rat
Description: It is generally accepted in the literature that both alphaxalone and alphadolone are intravenous anaesthetics, i.e. when they are given intravenously, they produce sedation and unconsciousness to a level sufficient for surgery. […] Such data, although alluded to in the literature, is not stated clearly with scientific evidence. Thus, we performed the experiments described in Example 2. Rats were given an intravenous injection of alphadolone. All of the rats became unconscious and surgically anaesthetised within 5 seconds of the intravenous injection. […] Thus, it can be concluded that intravenous injection of alphadolone produces unconsciousness.
Four rats (wt 100 g) were given 0.25 ml injections of alphadolone solution (10 mg/ml; dissolved in 10% Cremophor EL), into the lateral tail vein. A stopwatch was used to time the following scoring of sedation every 15 seconds:
1—righting reflex but no spontaneous locomotion
2—spontaneous locomotion but uncoordinated
3—normal locomotion and exploratory behaviour: full recovery
They all recovered fully within 90 seconds of the drug administration.

[3] = Plasma alphadolone and glucuronide metabolite levels after oral capsule; format: in vivo, human
Protocol: The patients who had alphadolone administered orally to them, had blood samples taken at time 0, the time of drug administration, and at ½ hour intervals for 6 hours This blood was sent off to a laboratory at the Royal Melbourne Institute of Technology for analysis of blood alphadolone levels. It can be seen from Example 5 that no measurable alphadolone was found in the blood of these patients who were reporting useful analgesia with decreased morphine requirements. […] These experiments mean that very little or no free alphadolone was present in these patient's blood, but large quantities of alphadolone was present as the glucuronide metabolite. This evidence supports further our claim that the analgesic effects of alphadolone and alphadolone acetate given by oral and intraperitoneal routes involves activity of metabolites in general and the glucuronide in particular.
All patients had 10 ml of blood taken from a vein immediately prior to the capsule administration and also 30 minutes, one hour, 1½ hours, 2 hours, 3 hours, 4 hours and 6 hours after capsule administration. The blood was placed in heparinised tubes, centrifuged and the plasma decanted for later analysis of blood alphadolone levels by the Key Centre for Applied and Nutritional Toxicology, Royal Melbourne Institute of Technology.
No alphadolone was detected in the plasma. The lower limit of detection was 50 ng/ml. […] In 5 of these patients the metabolite was detected in the first sample taken after the alphadolone capsule had been given.

mice = assay: PAN LABS toxicity test; format: in vivo, mouse
Protocol: The experiments from our laboratory are supported by observations by an independent body, PAN LABS. A sample of alphadolone used in the above experiments in rats in our laboratory was sent to a commercial drug-testing house, called PAN LABS. They gave the drug to a number of preparations to look for toxicity effects as well as pharmacological effect. In one toxicity test performed at PAN LABS, doses of up to 300 mg per kg of alphadolone was given to mice.

rats [4] = assay: Loss of righting reflex and loss of coordination in the rotarod test after intraperitoneal dosing
Description: Groups of 10 rats were examined for the duration of the loss of righting reflex and loss of coordination in the rotarod test and also for antinociceptive effects in the electrical current threshold test measured in the tail. […] Thus we were able to compare the duration of sedation and anaesthesia and quantity of antinociception following intraperitoneal administration of the neurosteroid mixture and also following the components of the mixture at the doses which were given when the combination was used.
We have gone on to test the ability for alphadolone to produce sedation. We have given doses up to […] intraperitoneally of alphadolone.

[5] = six hours after capsule, 100, 250 and 500 mg orally, n = 7
[6] = plasma treated with glucuronidase, 250 mg, 5 patients, 500 mg, one patient

Q: What does the source list for `CC(=O)OCC(=O)[C@H]1CC[C@H]2[C@@H]3CC[C@H]4C[C@H](O)CC[C@]4(C)[C@H]3C(=O)C[C@]12C` [alphadolone, 21-acetoxy-3alpha-hydroxy-5alpha-pregnane-11,20-dione]?
A: side effects: sedation, nausea, disorientation, respiratory depression ([1]; dose escalation, 25 to 500 mg orally, humans): No sedation, nausea or disorientation or respiratory depression; also recorded: well tolerated up to a dose of 500 mg orally; also recorded: no sedation or disorientation whatsoever; nausea score and sedation score compared with placebo (chi-square) ([1]; n = 7 vs placebo n = 5, P=0.9459 nausea, P=0.8661 sedation): no significant difference; Nausea score 0 (none), number of scores [1, 5]: 72; Nausea score 1 (mild), number of scores [1, 5]: 10; Nausea score 2 (moderate), number of scores [1, 5]: 1; Sedation score 0 (none), number of scores [1, 5]: 20; Sedation score 1 (mild), number of scores [1, 5]: 48; Sedation score 2 (moderate), number of scores [1, 5]: 15; righting reflex / sedation (rats [2]; 25 mg/kg intravenous (lateral tail vein), 10% Cremophor EL, four rats): lost the righting reflex and were heavily sedated; time to full recovery after drug administration (rats [2]; 25 mg/kg intravenous, four rats): ≤ 90 s; time to unconsciousness and surgical anaesthesia after intravenous injection (rats [2]; intravenous injection, rats): ≤ 5 s; alphadolone in plasma (lower limit of detection) ([3]; oral capsule, samples up to 6 hours, without glucuronidase treatment): < 50 ng/mL; alphadolone metabolite (glucuronide) in plasma [3, 6]: microgram/ml concentrations; alphadolone metabolite in plasma at the 6 hour sampling time point [3, 6]: still present, although decaying; grip strength (mice; 300 mg/kg, mice): mild decrease in grip strength; also recorded: slight decrease in grip strength; anaesthesia (mice; doses of up to 300 mg per kg given to mice): did not produce anaesthesia; sedative effects (rats [4]; 0.1 to 100 mg/kg intraperitoneally, rats): No sedative effects were observed; sedation, loss of coordination, abnormal behaviour (rats [4]; doses up to 300 mg/kg intraperitoneally (b128 prints 300 mg/g), rats): no sedative effects whatsoever; also recorded: no evidence of sedation or loss of coordination; sedation and anaesthesia (loss of righting reflex, loss of coordination in rotarod test) (rats [4]; ip, Saffan 2 ml/kg, alphaxalone 18 mg/kg, alphadolone 6 mg/kg, groups of 10 rats): no sedation or loss of righting reflex

Reference: patent US6787530B1, “Use of pregnane-diones as analgesic agents” (priority 1996, dated 2004)
